PMC11868595, “Safety, pharmacokinetics and efficacy of HA121-28 in patients with advanced solid tumors and RET fusion-positive non-small-cell lung cancer: a multicenter, open-label, single-arm phase 1/2 trial” (Signal Transduction and Targeted Therapy, 2025)
Like-named read-outs stand apart in the source and are kept apart here.

Key:
FLT-1 = FLT-1 (Homo sapiens, UniProt P17948); experiment: Tyrosine kinase inhibition; type: biochemical; details: read-out: IC50, FLT1
8305C cells = experiment: Tumor cell proliferation in vitro; type: cell-based
A431 cells = experiment: Tumor cell proliferation in vitro; type: cell-based, human; details: A431; read-out: IC50, proliferation
KYSE-150 cells = experiment: Tumor cell proliferation in vitro; type: cell-based, human
[1] = system: arterial ring angiogenesis; experiment: Rat arterial ring angiogenesis
Plasma protein binding [2] = type: in vitro ADME; details: mice
Plasma protein binding [3] = type: in vitro ADME; details: dogs
[4] = 28-day repeated dose toxicity; type: in vivo, SD rats
[5] = 28-day repeated dose toxicity; type: in vivo, Beagle dogs
Metabolites in plasma [6] = details: dogs
Metabolites in plasma [7] = details: monkeys

Sequence of FLT-1 (P17948 27-1338): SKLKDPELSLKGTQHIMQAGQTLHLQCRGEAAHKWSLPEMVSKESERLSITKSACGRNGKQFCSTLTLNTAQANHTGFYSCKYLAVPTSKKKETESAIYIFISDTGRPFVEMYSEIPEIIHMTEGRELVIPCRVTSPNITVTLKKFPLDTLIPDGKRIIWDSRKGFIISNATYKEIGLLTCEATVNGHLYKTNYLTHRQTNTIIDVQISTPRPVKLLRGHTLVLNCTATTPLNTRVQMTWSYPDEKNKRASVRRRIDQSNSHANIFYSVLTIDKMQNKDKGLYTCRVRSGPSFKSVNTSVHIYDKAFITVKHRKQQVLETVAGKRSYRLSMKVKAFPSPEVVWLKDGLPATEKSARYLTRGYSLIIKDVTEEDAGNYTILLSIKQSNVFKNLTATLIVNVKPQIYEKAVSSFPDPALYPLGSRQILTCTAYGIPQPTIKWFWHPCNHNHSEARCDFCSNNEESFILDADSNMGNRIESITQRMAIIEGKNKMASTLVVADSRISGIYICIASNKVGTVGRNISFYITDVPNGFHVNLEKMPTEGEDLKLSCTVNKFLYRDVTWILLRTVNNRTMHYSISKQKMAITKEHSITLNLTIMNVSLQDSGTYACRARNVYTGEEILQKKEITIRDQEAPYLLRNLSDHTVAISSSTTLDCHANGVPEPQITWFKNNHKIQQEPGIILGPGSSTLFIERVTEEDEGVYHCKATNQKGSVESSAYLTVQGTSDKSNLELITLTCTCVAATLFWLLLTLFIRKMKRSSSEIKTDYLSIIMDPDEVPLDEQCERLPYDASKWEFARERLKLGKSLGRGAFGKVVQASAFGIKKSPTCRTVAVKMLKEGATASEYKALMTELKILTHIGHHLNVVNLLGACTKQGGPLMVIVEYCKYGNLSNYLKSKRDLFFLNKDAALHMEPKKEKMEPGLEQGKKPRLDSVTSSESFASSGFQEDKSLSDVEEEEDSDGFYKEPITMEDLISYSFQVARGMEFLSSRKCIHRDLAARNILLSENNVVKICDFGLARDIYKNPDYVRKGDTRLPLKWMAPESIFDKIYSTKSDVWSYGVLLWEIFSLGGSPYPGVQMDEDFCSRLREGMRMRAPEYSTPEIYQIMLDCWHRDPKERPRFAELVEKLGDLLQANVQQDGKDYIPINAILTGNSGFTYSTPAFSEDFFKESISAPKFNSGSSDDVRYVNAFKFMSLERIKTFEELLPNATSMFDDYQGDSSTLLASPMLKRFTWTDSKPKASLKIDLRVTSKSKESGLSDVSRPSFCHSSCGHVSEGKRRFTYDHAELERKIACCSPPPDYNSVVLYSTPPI

COc1cc2c(Nc3ccc(Br)cc3F)ncnc2cc1OCCCCN(C)C.Cl.Cl [HA121-28, N-(4-bromo-2-fluorophenyl)-7-(4-(dimethylamino)butoxy)-6-methoxy quinazolin-4-amine dihydrochloride]
IC50 (FLT-1): 20.9 nM
IC50 (8305C cells): 623 ± 80.3 nM
IC50 (A431 cells): 775 ± 76.7 nM
IC50 (KYSE-150 cells; KYSE-150, metabolite comparison, read-out: IC50): 1080 nM
IC50 (KYSE-150 cells; KYSE-150, read-out: IC50): 1080 ± 220 nM
IC50 (KYSE-150 cells; KYSE-150, read-out: IC50, proliferation): 1080 ± 220 nM
rat arterial ring angiogenesis [1]: able to inhibit
plasma protein binding rate (Plasma protein binding [2]): 97.2±0.266%
plasma protein binding rate (Plasma protein binding [3]): 91.9±0.857%
no observed adverse effect level (NOAEL) ([4]; 28-day, SD rats): 15 mg/kg
highest non-severely toxic dose (HNSTD) ([4]; oral gavage, four consecutive weeks): 15 mg/kg
no observed adverse effect level (NOAEL) ([5]; 28 d, Beagle dog): 12 mg/kg
highest non-severely toxic dose (HNSTD) ([5]; oral, four consecutive weeks): 12 mg/kg
number of metabolites found in plasma (Metabolites in plasma [6]): 7
number of metabolites found in plasma (Metabolites in plasma [7]): 4
